Values joined by “and” are separate entries in the source; they are usually repeats but may differ in a detail not shown here. Equal entries are not always repeated.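 How tested: cells in 96-well plates exposed to compound for 48 hours at five concentrations. Abbreviation: GI50, concentration required for 50% inhibition of growth. The concentration for full growth arrest is given as TGI.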
Key:
Assay in all cases: NCI tumour cell line growth inhibition, 48 h
786-0 renal = tested on: 786-0 renal
COLO 205 colon = tested on: COLO 205 colon
HS 578T breast = tested on: HS 578T breast
UACC-257 melanoma = tested on: UACC-257 melanoma
OVCAR-3 ovarian = tested on: OVCAR-3 ovarian
SF-539 CNS = tested on: SF-539 CNS
HT29 colon = tested on: HT29 colon
HCC-2998 colon = tested on: HCC-2998 colon
K-562 leukemia = tested on: K-562 leukemia
NCI-H522 lung = tested on: NCI-H522 lung

SMILES	GI50 (786-0 renal)	TGI (786-0 renal)	GI50 (COLO 205 colon)	TGI (COLO 205 colon)	GI50 (HS 578T breast)	TGI (HS 578T breast)	GI50 (UACC-257 melanoma)	TGI (UACC-257 melanoma)	GI50 (OVCAR-3 ovarian)	TGI (OVCAR-3 ovarian)	GI50 (SF-539 CNS)	TGI (SF-539 CNS)	GI50 (HT29 colon)	TGI (HT29 colon)	GI50 (HCC-2998 colon)	TGI (HCC-2998 colon)	GI50 (K-562 leukemia)	TGI (K-562 leukemia)	GI50 (NCI-H522 lung)	TGI (NCI-H522 lung)
O=c1[nH]c2ccccc2n1C1CCN(CCCC(c2ccc(F)cc2)c2ccc(F)cc2)CC1	1.75 µM and 2.79 µM	3.38 µM and 7.58 µM	1.31 µM	2.58 µM and 3.31 µM	1.83 µM and 7.71 µM	4.47 µM and 24.8 µM	1.58 µM and 2.83 µM	3.24 µM and 7.83 µM	1.7 µM and 4.37 µM	3.13 µM and 13.1 µM	1.88 µM and 3.35 µM	3.58 µM and 9.28 µM	1.12 µM	2.52 µM and 7.2 µM	1.5 µM	2.9 µM and 3.84 µM	1.88 µM	4.54 µM and 17.4 µM	1.73 µM	3.36 µM and 10.4 µM
O=C1/C(=C/c2ccccc2[N+](=O)[O-])COc2ccc(O)cc21	1.72 µM	10 µM	1.14 µM	2.89 µM	2.39 µM	41.6 µM	2.16 µM	7.13 µM	0.523 µM	1.76 µM	1.71 µM	4.27 µM	0.397 µM	3.07 µM	1.51 µM	2.94 µM	0.528 µM	> 100 µM	0.684 µM	3.65 µM
CSC1=Nc2c(c(C)c(-c3ccccc3)n2COC(CO)CO)C2=NC(=O)CN12	> 100 µM	> 100 µM	> 100 µM	> 100 µM	> 100 µM	> 100 µM	> 100 µM	> 100 µM	> 100 µM	> 100 µM	> 100 µM	> 100 µM	> 100 µM	> 100 µM	> 100 µM	> 100 µM	> 100 µM	> 100 µM	> 100 µM	> 100 µM
COc1ccc(-c2c3c(N)c4c(nc3nc3c2c(C)nn3-c2ccccc2)CCCC4)cc1	4.55 µM	17.5 µM	2.32 µM	5.91 µM	12.5 µM	37.2 µM	2.43 µM	9.38 µM	4.17 µM	15.3 µM	14.5 µM	29.2 µM	2.68 µM	8.8 µM	3.51 µM	12.7 µM	2.3 µM	6.85 µM	2.91 µM	12.2 µM
Cc1ccc(Cl)cc1-n1c(C)nc2c(cnn2-c2ccnc3c(C(F)(F)F)cccc23)c1=O	> 100 µM	> 100 µM	> 100 µM	> 100 µM	> 100 µM	> 100 µM	> 100 µM	> 100 µM	> 100 µM	> 100 µM	> 100 µM	> 100 µM	> 100 µM	> 100 µM	> 100 µM	> 100 µM	> 100 µM	> 100 µM	> 100 µM	> 100 µM
COc1c(CC=C(C)C)c(O)c(C(CC(C)C)c2c(O)c(CC=C(C)C)c(O)c(C(C)=O)c2O)c(O)c1C(C)=O (configuration not stated)		11.9 µM		4.7 µM		4.63 µM		5.11 µM		12.5 µM		7.76 µM		8.63 µM		1.69 µM		5.71 µM		1.48 µM
Fc1ccc2nc(-c3nc(-c4ccccc4)n4ccccc34)[nH]c2c1	2.23 µM	4.23 µM	3.42 µM	13.1 µM	3.56 µM	25 µM	2.16 µM	4.76 µM	4.29 µM	15.1 µM	2.32 µM	6.85 µM	3.25 µM	9.15 µM	4.11 µM	16.9 µM	3.47 µM	> 100 µM	2.43 µM	5.6 µM
c1ccc(CN2COc3c(ccc4c5c(ccc34)CN(Cc3ccccc3)CO5)C2)cc1		> 100 µM		> 100 µM		> 100 µM		> 100 µM		> 100 µM		> 100 µM		> 100 µM		> 100 µM		> 100 µM		> 100 µM
NCc1ccc(-c2nc(-c3ccc(Cl)c(O)c3)c(-c3ccncc3)[nH]2)cc1	> 25 µM	> 25 µM	> 25 µM	> 25 µM	11.9 µM	> 25 µM	3.63 µM	17.4 µM	> 25 µM	> 25 µM	> 25 µM	> 25 µM	> 25 µM	> 25 µM	> 25 µM	> 25 µM	> 25 µM	> 25 µM	> 25 µM	> 25 µM
Nc1nc(-c2ccc(Cl)cc2)nc2c1sc(=S)n2-c1ccccc1	1.84 µM	3.62 µM	7.44 µM	> 100 µM	3.31 µM	9.39 µM	6.58 µM	32 µM	2.75 µM	7.64 µM	1.62 µM	3.29 µM	6.09 µM	> 100 µM	7.52 µM	50.2 µM	4.75 µM	> 100 µM	5.64 µM	> 100 µM
CCn1ccnc1C(=O)/C=C/c1ccc(CC(=O)Nc2ccc(F)cc2)cc1	4.36 µM	> 16.7 µM	4.29 µM	13.1 µM	5.36 µM	> 16.7 µM	14 µM	> 16.7 µM	3.92 µM	> 16.7 µM	2.93 µM	6.15 µM	5.64 µM	> 16.7 µM	5.1 µM	> 16.7 µM	2.06 µM	> 16.7 µM	3.92 µM	10.2 µM
C/C(=N\NC(=S)N1CCN(c2ccccn2)CC1)c1ncccn1	0.0742 µM	15.7 µM	< 0.0245 µM		3.01 µM	31.2 µM	0.0339 µM	1.42 µM and 4.27 µM	0.213 µM	7.5 µM and 15.3 µM	0.655 µM	6.38 µM and 15.9 µM	< 0.0263 µM	7.55 µM and 14.9 µM	0.177 µM	5.21 µM and 13.5 µM		1.35 µM and 4.46 µM	0.0859 µM	1.45 µM and 2.06 µM
CC1(C)[C@H](O)[C@H](F)C[C@@]2(C)Oc3ccc(C(=O)Nc4ccc5c(c4)NC(=O)C54CCN(CCCCC#N)CC4)cc3C[C@H]12	0.0267 µM	1.8 µM and 4.76 µM	1.24 µM and 1.14 µM	3.42 µM and 3.63 µM	0.00265 µM	0.035 µM and 0.0352 µM	1.57 µM	5.02 µM	3.82 µM and 12 µM	30.4 µM	0.00698 µM	4.77 µM and 2.5 µM	1.8 µM and 1.69 µM	6.73 µM	6.76 µM and 2.71 µM	15 µM	0.0573 µM and 0.012 µM	4.81 µM and 1.48 µM	1.77 µM and 1.02 µM	7.86 µM and 2.52 µM
N#C/C(=C\c1cc2ccc(N3CCC3)cc2oc1=O)C(=O)N(CC(=O)O)CC(=O)O	> 100 µM	> 100 µM	> 100 µM	> 100 µM	> 100 µM	> 100 µM	> 100 µM	> 100 µM	> 100 µM	> 100 µM	> 100 µM	> 100 µM	> 100 µM	> 100 µM	> 100 µM	> 100 µM	97.2 µM	> 100 µM	> 100 µM	> 100 µM
O=C1/C(=C/c2ccccc2O)N=C(c2ccccc2)N1c1cc(C(F)(F)F)ccc1Cl	18.3 µM	44.1 µM	> 100 µM	> 100 µM	22.8 µM	60.3 µM	> 100 µM	> 100 µM	54.2 µM	> 100 µM	59.5 µM	> 100 µM	> 100 µM	> 100 µM	> 100 µM	> 100 µM	> 100 µM	> 100 µM	48.4 µM	> 100 µM
[Cl][Cu][Cl]	> 10 µM	> 10 µM	> 10 µM	> 10 µM	> 10 µM	> 10 µM	> 10 µM	> 10 µM	> 10 µM	> 10 µM	> 10 µM	> 10 µM	> 10 µM	> 10 µM	> 10 µM	> 10 µM	> 10 µM	> 10 µM	> 10 µM	> 10 µM
CC(=O)N(O)c1ccc(/C=C/c2ccccc2)cc1	0.768 µM	3.46 µM	3.34 µM	44 µM	3.62 µM	68.8 µM	1.23 µM	5.17 µM	2.55 µM	29.2 µM	2.43 µM	35.1 µM	3.39 µM	53.2 µM	1.65 µM	3.76 µM	7.39 µM	> 100 µM	3.58 µM	> 41.1 µM
c1ccc(C2CCCCC2)c(OCCCCCN2CCNCC2)c1	1.7 µM	4.27 µM	1.45 µM	3.31 µM	3.61 µM	22.1 µM	2.35 µM	4.92 µM	2.74 µM	11.1 µM	3.65 µM	18.1 µM	1.6 µM	4.9 µM	1.32 µM	2.7 µM	0.313 µM	1.7 µM	10.3 µM	28.5 µM
COC1=C(OC)[C@]2(OC)c3c(O)c(OC)c4c(c3O[C@@]23O[C@@H](c2ccccc2)CC=C3C1=O)[C@@H](OC)C[C@H](c1ccccc1)O4	0.292 µM	0.801 µM	0.326 µM	1.44 µM	0.896 µM	3.66 µM	0.814 µM	2.17 µM	0.255 µM	0.72 µM	0.421 µM	1.54 µM	0.235 µM	0.612 µM	1.4 µM	3.32 µM	0.0676 µM	0.333 µM	0.247 µM	0.762 µM
COc1ccc(COc2cc3oc(=O)c4cc(C(C)O)ccc4c3cc2OC)cc1 (configuration not stated)	13.1 µM	56.7 µM	> 22.7 µM	> 100 µM	8.79 µM	> 67.4 µM	19.7 µM	> 74.6 µM	17.1 µM	63.1 µM	9.97 µM	33 µM		> 100 µM	> 31.4 µM	> 100 µM	73.4 µM	> 100 µM	10.1 µM	> 95.3 µM
N#Cc1cccc(Nc2ncc(-c3ccccc3)o2)c1	12.9 µM	> 25 µM	14.8 µM	> 25 µM	8.52 µM	> 25 µM	> 25 µM	> 25 µM	8.71 µM	> 25 µM	10.3 µM	> 25 µM	> 25 µM	> 25 µM	> 23.7 µM	> 25 µM	> 25 µM	> 25 µM	19.2 µM	> 25 µM
CC1=NNC(=S)NCCCN2CCN(CCCNC(=S)NN=C(C)C=NNC(=S)NCCCN3CCN(CCCNC(=S)NN=C1)CC3)CC2		> 100 µM		> 100 µM		> 100 µM		> 100 µM		> 100 µM		> 100 µM		> 100 µM		> 100 µM		> 100 µM		> 100 µM
C[C@@H](NC(=O)c1ccc(F)cc1)c1ccc2c(c1)CCN2C(=O)C1CCOCC1	> 100 µM	> 100 µM	> 100 µM	> 100 µM	> 100 µM	> 100 µM	> 100 µM	> 100 µM	> 100 µM	> 100 µM	> 100 µM	> 100 µM	> 100 µM	> 100 µM	> 100 µM	> 100 µM	> 100 µM	> 100 µM	> 100 µM	> 100 µM
COc1ccc(C2CC(c3ccc(N(C)C)cc3)=NN2c2ccc(S(N)(=O)=O)cc2)cc1 (configuration not stated)	3.79 µM	20.6 µM	2.46 µM	5.49 µM	5.52 µM	42.6 µM	4.48 µM	> 100 µM	3.02 µM	8.18 µM	4.32 µM	56.1 µM	3.5 µM	10.7 µM	2.99 µM	12.4 µM	3.8 µM	> 100 µM	2.69 µM	6.69 µM
Cc1ccc(S(=O)(=O)NC(=O)OC23COCN2COC3)cc1		> 100 µM		> 100 µM		> 100 µM		> 100 µM		> 100 µM		> 100 µM		> 100 µM		> 100 µM		> 100 µM		> 100 µM
N#Cc1c(NC(=O)c2ccccc2F)sc2c1CCCC2	> 25 µM	> 25 µM	22.2 µM	> 25 µM	> 21.9 µM	> 25 µM	> 25 µM	> 25 µM	> 25 µM	> 25 µM	> 25 µM	> 25 µM	10.4 µM	> 25 µM	13.4 µM	> 25 µM	5.07 µM	> 25 µM	> 12.8 µM	> 25 µM

From PubChem BioAssay (NCI)
